Data as given in patent US8242085B2, “Tetrahydrofuro [3,4-D] dioxolane compounds for use in the treatment of viral infections and cancer” (BioCryst Pharmaceuticals, Inc., priority 2007, dated 2012).

Assay: in vivo test of prodrug hydrolysis to active compound
Conditions: tested in vivo

C[C@@]12OC(c3ccc(Cl)cc3)O[C@@H]1[C@@H](CO)O[C@H]2c1coc2c(N)ncnc12 (stereo partly drawn) [Example 1, ((3aR,4R,6S,6aS)-6-(4-Aminofuro[3,2-d]pyrimidin-7-yl)-2-(4-chlorophenyl)-6a-methyltetrahydrofuro[3,4-d][1,3]dioxol-4-yl)methanol]
hydrolysis of prodrug in vivo: hydrolyzes in vivo to provide an active compound
